This is an account of results in patent US11780893B2, “Kv1.3 blockers” (Zealand Pharma A/S, priority 2019, dated 2023).

In general, IC50 refers to the point on the concentration scale where inhibition reaches its midpoint.

The target in assay [1] is T1, human Kv1.3 voltage-gated K+ channel (Homo sapiens, UniProt P22001).
T1 construct: host or cells: CHO-DUKX
In words: cell-based. Conditions: inhibition of thallium flux, CHO-DUKX cells with human Kv1.3; read-out: IC50.

For another assay, the target named is Rat whole blood (Rattus norvegicus, UniProt P15384).
Sequence of Rat whole blood (P15384 whole entry): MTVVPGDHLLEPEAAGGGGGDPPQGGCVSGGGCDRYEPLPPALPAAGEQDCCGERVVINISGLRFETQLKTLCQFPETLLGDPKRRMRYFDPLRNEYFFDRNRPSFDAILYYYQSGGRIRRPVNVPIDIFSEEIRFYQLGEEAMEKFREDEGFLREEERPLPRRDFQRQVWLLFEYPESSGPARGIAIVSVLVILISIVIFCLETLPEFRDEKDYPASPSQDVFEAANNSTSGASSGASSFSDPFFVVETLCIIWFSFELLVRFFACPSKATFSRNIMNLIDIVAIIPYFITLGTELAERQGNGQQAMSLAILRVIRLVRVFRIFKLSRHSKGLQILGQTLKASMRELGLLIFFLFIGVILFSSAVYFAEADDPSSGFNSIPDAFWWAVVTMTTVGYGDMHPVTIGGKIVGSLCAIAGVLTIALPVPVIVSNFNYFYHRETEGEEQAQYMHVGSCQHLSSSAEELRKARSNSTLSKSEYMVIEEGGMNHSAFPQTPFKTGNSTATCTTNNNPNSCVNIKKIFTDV
Where [2] appears, read: inhibition of IL-17A release, thapsigargin, 24 Hr, at least 2 replicates.

Where two headings read alike, the source gives them in different places. Bridge positions count the residues as written; N and C are the ends. Square brackets hold non-standard residues; d marks the D form. Peptide text beside a SMILES is read from it. Nle = CCCC[C@H](N)C(=O)O

T1 sequence (P22001 whole entry): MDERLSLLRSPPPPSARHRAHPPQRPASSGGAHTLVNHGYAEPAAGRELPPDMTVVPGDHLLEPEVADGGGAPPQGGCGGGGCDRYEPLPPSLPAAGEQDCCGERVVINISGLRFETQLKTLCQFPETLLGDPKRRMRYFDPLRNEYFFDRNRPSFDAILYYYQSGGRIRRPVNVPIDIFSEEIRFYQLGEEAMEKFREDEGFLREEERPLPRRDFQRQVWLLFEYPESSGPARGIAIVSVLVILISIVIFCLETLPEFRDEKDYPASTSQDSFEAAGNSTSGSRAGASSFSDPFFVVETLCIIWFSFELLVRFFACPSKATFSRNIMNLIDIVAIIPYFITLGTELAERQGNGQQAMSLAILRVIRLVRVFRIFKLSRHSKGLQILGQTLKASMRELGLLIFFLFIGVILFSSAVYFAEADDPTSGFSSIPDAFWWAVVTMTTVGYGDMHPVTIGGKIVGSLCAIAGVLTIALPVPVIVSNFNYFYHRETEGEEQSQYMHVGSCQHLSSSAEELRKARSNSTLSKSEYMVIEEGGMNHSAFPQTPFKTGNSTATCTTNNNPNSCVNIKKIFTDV

With `CCCC[C@@H]1NC(=O)[C@@H]2CSSC[C@H](N)C(=O)N[C@@H](CO)C(=O)N[C@@H](C)C(=O)N[C@@H](CO)C(=O)N[C@@H](C(C)C)C(=O)N[C@@H](CCC(=O)O)C(=O)N[C@H]3CSSC[C@H](NC(=O)[C@H](CCCCN)NC(=O)[C@H](CCCCN)NC(=O)[C@H](CC(N)=O)NC1=O)C(=O)N[C@@H](CCCCN)C(=O)N[C@H]1CSSC[C@H](NC(=O)[C@H](CCCCN)NC(=O)[C@H](CCC(N)=O)NC(=O)[C@H](CCCCN)NC3=O)C(=O)N[C@@H](CC(C)C)C(=O)N[C@@H](CCCCN)C(=O)N[C@@H](C)C(=O)N[C@@H]([C@@H](C)CC)C(=O)NCC(=O)N[C@@H](CSSC[C@@H](C(N)=O)NC(=O)[C@@H]3CCCN3C(=O)[C@H](Cc3ccc(O)cc3)NC1=O)C(=O)N[C@@H]([C@@H](C)CC)C(=O)N[C@@H](Cc1ccccc1)C(=O)NCC(=O)N[C@@H](CCCCN)C(=O)N2` [Compound 86] (H-CSASVECKQKCLKAIGCIFGKC[Nle]NKKCKCYPC-NH2; disulfide 1-22, 7-27, 11-29, 17-32), the IC50 in assay [1] stood at 0.2 nM; on Rat whole blood (setting [2]), 1.1 nM.
For the compound `CCCC[C@@H]1NC(=O)[C@@H]2CSSC[C@H](NC(=O)[C@H](CCCNC(=N)N)NC(=O)[C@H](CCCC)NC(=O)[C@H](CC(=O)O)NC(=O)[C@H](CCCC)NC(=O)[C@@H](N)CO)C(=O)N[C@@H](CO)C(=O)N[C@@H](C)C(=O)N[C@@H](CO)C(=O)N[C@@H](C(C)C)C(=O)N[C@@H](CCC(=O)O)C(=O)N[C@H]3CSSC[C@H](NC(=O)[C@H](CCCCN)NC(=O)[C@H](CCCCN)NC(=O)[C@H](CC(N)=O)NC1=O)C(=O)N[C@@H](CCCCN)C(=O)N[C@H](C(=O)N[C@@H](Cc1ccc(O)cc1)C(=O)N1CCC[C@H]1C(=O)N[C@@H](CCCNC(=N)N)C(=O)O)CSSC[C@H](NC(=O)[C@H](CCCCN)NC(=O)[C@H](CCC(N)=O)NC(=O)[C@H](CCCCN)NC3=O)C(=O)N[C@@H](CC(C)C)C(=O)N[C@@H](CCCCN)C(=O)N[C@@H](C)C(=O)N[C@@H]([C@@H](C)CC)C(=O)NCC(=O)N[C@@H](CO)C(=O)N[C@@H]([C@@H](C)CC)C(=O)N[C@@H](Cc1ccccc1)C(=O)NCC(=O)N[C@@H](CCCCN)C(=O)N2` [Compound 82] (H-S[Nle]D[Nle]RCSASVECKQKCLKAIGSIFGKC[Nle]NKKCKCYPR-OH; disulfide 6-27, 12-32, 16-34), the IC50 in assay [1] was 0.49 nM; against Rat whole blood it was at most 1 nM; at Rat whole blood (setting [2]), 0.52 nM.
For `CCCC[C@H](NC(=O)[C@H](CC(=O)O)NC(=O)[C@H](CCCC)NC(=O)[C@@H](N)CO)C(=O)N[C@@H](CCCNC(=N)N)C(=O)N[C@H]1CSSC[C@@H]2NC(=O)[C@H](CCCCN)NC(=O)CNC(=O)[C@H](Cc3ccccc3)NC(=O)[C@H]([C@@H](C)CC)NC(=O)[C@H](CO)NC(=O)CNC(=O)[C@H]([C@@H](C)CC)NC(=O)[C@H](C)NC(=O)[C@H](C(C)C)NC(=O)[C@H](CC(C)C)NC(=O)[C@@H]3CSSC[C@@H](C(=O)N[C@@H](Cc4ccc(O)cc4)C(=O)N4CCC[C@H]4C(=O)N[C@@H](CCCNC(=N)N)C(N)=O)NC(=O)[C@H](CCCCN)NC(=O)[C@H](CSSC[C@H](NC(=O)[C@H](CCC(=O)O)NC(=O)[C@H](C(C)C)NC(=O)[C@H](CO)NC(=O)[C@H](C)NC(=O)[C@H](CO)NC1=O)C(=O)N[C@@H](CCCCN)C(=O)N[C@@H](CCC(N)=O)C(=O)N[C@@H](CCCCN)C(=O)N3)NC(=O)[C@H](CCCCN)NC(=O)[C@H](CCCCN)NC(=O)[C@H](CC(N)=O)NC(=O)[C@H](CCSC)NC2=O` [Compound 78] (H-S[Nle]D[Nle]RCSASVECKQKCLVAIGSIFGKCMNKKCKCYPR-NH2; disulfide 6-27, 12-32, 16-34), the results for the IC50 (in assay [1]; against Rat whole blood; against Rat whole blood (setting [2])) were 0.12 nM, at most 1 nM and 0.39 nM, respectively.
